These results are taken from publication PMC9416253, “Automated Radiosynthesis, Preliminary In Vitro/In Vivo Characterization of OncoFAP-Based Radiopharmaceuticals for Cancer Imaging and Therapy” (Pharmaceuticals, 2022).

The target in data set [1] is FAP. Also on record: method as in PMID 33850024. Particulars: read-out: dissociation constant; cited from earlier work.
Data set [2] concerns the target T1, recombinant hFAP (Homo sapiens, UniProt Q12884).
T1 sequence (Q12884 1-760): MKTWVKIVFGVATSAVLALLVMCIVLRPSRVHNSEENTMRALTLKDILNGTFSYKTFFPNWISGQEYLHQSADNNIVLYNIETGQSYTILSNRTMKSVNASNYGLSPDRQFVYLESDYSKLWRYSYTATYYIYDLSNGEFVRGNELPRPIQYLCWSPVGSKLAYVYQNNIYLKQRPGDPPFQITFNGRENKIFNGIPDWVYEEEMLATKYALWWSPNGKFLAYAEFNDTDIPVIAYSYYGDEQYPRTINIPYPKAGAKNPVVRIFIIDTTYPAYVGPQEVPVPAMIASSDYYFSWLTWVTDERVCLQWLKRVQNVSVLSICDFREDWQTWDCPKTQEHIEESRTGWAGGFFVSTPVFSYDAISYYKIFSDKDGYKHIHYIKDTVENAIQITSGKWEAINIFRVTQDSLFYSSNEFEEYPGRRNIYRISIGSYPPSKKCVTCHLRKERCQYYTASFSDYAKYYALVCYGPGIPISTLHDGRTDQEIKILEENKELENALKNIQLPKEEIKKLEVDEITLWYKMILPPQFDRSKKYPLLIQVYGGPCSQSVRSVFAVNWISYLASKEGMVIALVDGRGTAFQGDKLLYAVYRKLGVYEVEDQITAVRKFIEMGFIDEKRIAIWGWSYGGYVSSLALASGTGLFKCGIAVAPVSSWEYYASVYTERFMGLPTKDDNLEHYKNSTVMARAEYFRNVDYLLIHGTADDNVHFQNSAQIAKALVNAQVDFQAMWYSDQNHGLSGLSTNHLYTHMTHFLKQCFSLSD
Description: Co-elution experiment with recombinant hFAP on PD-10 size exclusion columns. The data set is classed as binding. The settings on record: 500 kBq radioligand, hFAP 2 μM 100 μL, PD-10 column. As for the experimental part:
To assess the binding properties of radiolabeled OncoFAP-derivatives preparations to hFAP, [^68Ga]/[^18F]AlF/[^177Lu]-OncoFAP derivatives (500 kBq) were incubated with hFAP (2 μM, 100 μL) and then loaded on PD-10 columns, pre-equilibrated with running buffer (50 mM Tris, 100 mM NaCl, and 1 mM ethylenediaminetetraacetic acid [EDTA], pH = 7.4) and eluted with running buffer. Fractions of the flow through (500 μL) were collected, and the radioactivity intensity was measured immediately on a gamma counter (λ = 511 KeV for gallium-68 and fluorine-18 and λ = 208 KeV for lutetium-177).
(SEC sorts molecules by how far they enter the pores of the column.)

The target in data set [3] is hCAIX (Homo sapiens, UniProt Q16790). Description: Co-elution experiment with hCAIX (non-target protein) on PD-10 columns. The data set is classed as binding. Particulars: PD-10 column. On the procedure: NODAGA-OncoFAP labeling with 177Lu and characterization
Figure S1. (A) Radiolabeling reaction scheme of OncoFAP-NODAGA with 177Lu in acetate buffer (pH=4) at 95°C for 15 min. (B) Coelution experiment of [177Lu]Lu-NODAGA-OncoFAP-with hFAP and hCAIX on PD-10 size exclusion chromatography columns. (C) Radio-HPLC analysis performed after labeling reaction.
NODAGA-OncoFAP can be efficiently labeled with 177Lu by heating at 95°C in acetate buffer (pH=4) for 15 min. [Figure S1A] […]
been observed. [Figure S1C] […]

The nature of data set [4]: Lipophilicity by shake-flask method (n-octanol/saline or PBS). Particulars: room temperature; for LogD7.4: n-octanol/PBS; for LogP: n-octanol/saline solution. The data set is classed as physicochemical. As for the experimental part: Lipophilicity was determined by partitioning between n-octanol and saline solution (LogP) or PBS (LogD7.4) at room temperature using the conventional shake-flask method. An aliquot of the formulated solution containing ~500 kBq of radiopharmaceuticals was added to a tube containing 6 mL of n-octanol/saline solution or n-octanol/PBS (1:1 v/v, LogP or LogD7.4, respectively). The tubes were shaken for 20 min, followed by centrifugation (5000× g for 5 min) and separation of the phases. Aliquots of 1 mL of the organic and the aqueous phases were taken, and the activity was measured using an automated gamma counter. The LogP or LogD7.4 were calculated as the decadic logarithm of [activity (cpm/mL) in n-octanol]/[(activity (cpm/mL) in saline solution or PBS].

Data set [5] deals with HT-1080.hFAP tumors. Kind of data set: In vivo biodistribution in mice bearing subcutaneous HT-1080.hFAP tumors. As for the experimental part:
Tumor cells were grown to 80% confluence in Dulbecco’s Modified Eagle Medium (DMEM) supplemented with 10% Fetal Bovine Serum (Thermofisher, Waltham, MA, USA) and 1% antibiotic-antimycotic (Gibco) and detached with Trypsin-EDTA 0.05%. HT-1080.hFAP, cells (FAP positive cells) were resuspended in Hanks’ Balanced Salt Solution medium. Aliquots of 5 × 10^6 cells (100 μL of suspension) were injected subcutaneously in the right flanks of female athymic Balb/c AnNRj-Foxn1 mice (6 to 8 weeks of age, Janvier-labs, Le Genest-Saint-Isle, France). Female athymic Balb/c AnNRj-Foxn1 mice (6 to 8 weeks of age) were implanted in the right flank with HT-1080.hFAP tumors as described above. Tumors were allowed to grow to an average volume of 250 mm^3. Mice were randomized (n = 5 per group) and injected intravenously with radiolabeled preparations of [^18F]AlF-NOTA-OncoFAP (10 nmol/mice; 77 kBq; RCP:89%). Mice were euthanized 1 h after the injection by CO2 asphyxiation. Organs were extracted, weighted, and radioactivity was measured with a Packard Cobra Gamma Counter. Values are expressed as percent ID/g ± SD.

For data set [6], the system named is SK-RC-52.hFAP cells. Kind of data set: Cell binding assay on FAP-positive SK-RC-52.hFAP cells. The data set is classed as cell-based. Particulars: 0.1 MBq, 37 °C, 1.5 × 10^5 cells each tube. As for the experimental part: Cell binding assays were performed in triplicate on SK-RC-52.hFAP and SK-R-RC-52.wt cells (density of 1.5 × 10^5 cells each tube), growth in RPMI-1640 medium (Gibco) containing 10% Fetal Bovine Serum (Gibco) and 1% Antibiotic-Antimycotic (Gibco) at 37 °C in 5% carbon dioxide (CO2). After adding [^68Ga]Ga-DOTAGA-OncoFAP, [^177Lu]Lu-DOTAGA-OncoFAP or [^18F]AlF-NOTA-OncoFAP (10 µL, 0.1 MBq) to the culture medium, the cells were incubated at 37 °C for 10, 30, 60 min for ^68Ga-derivatives and 10, 30, 60, 120, 240 min for ^18F-derivatives or 10, 30, 60, 120, 240, 360 min and 24 and 48 h for the ^177Lu-derivative. As a control, nonspecific binding determination was carried out by incubating with the OncoFAP derivatives complex with the non-radioactive isotopes reference standard (100 µM) with the same cell lines for 5 min before incubation with the radiolabeled compounds. After incubation, the cell pellets were washed twice with 1 mL of cold PBS (pH 7.4), centrifuged (400× g, 5 min) and the pellet measured by an automatic gamma counter (WIZARD2, PerkinElmer, Waltham, MA, USA).

The subject of data set [7] is FAP-expressing tumor models. More on the design: method as in PMID 34957527. Particulars: cited from earlier work.
Data set [8] in a line: In vitro stability in saline solution (bulk solution), HPLC/iTLC. It is filed as physicochemical. On the procedure: The in vitro stability of the radiopharmaceuticals preparations in saline solution was evaluated on the bulk solution i.e., with the highest radioactive concentration. In addition, the in vitro stability of radiopharmaceutical preparations was tested by incubating 10 MBq of each radiolabeled compounds in 1 mL of human plasma at 37 °C. Small aliquots of bulk solution were analyzed by HPLC and iTLC and 10 µL of plasma solution were analyzed by iTLC at 30, 60, 90, 120, 150 and 180 min for [^68Ga]Ga-DOTAGA/NODAGA-OncoFAP derivatives, 50, 100, 150 and 200-min for [^18F]AlF-NOTA/NODAGA-OncoFAP or 1, 3, 6, 12, 24, and 2, 3, 4, 7 and 9 days for [^177Lu]Lu-DOTAGA-OncoFAP, as show in Figure 3.

Data set [9] relates to FAP-positive tumor. Also on record: method as in PMID 35589404. Particulars: cited from earlier work.
[10] abbreviates: 1-h time point, 500 nmol/kg i.v.

Read-outs that look alike come from different tables or passages of the source.

In the case of `N#C[C@@H]1CC(F)(F)CN1C(=O)CNC(=O)c1ccnc2c(NC(=O)CCC(=O)O)cccc12` [OncoFAP], the Kd in [1] is 0.68 nM.
Consider `N#C[C@@H]1CC(F)(F)CN1C(=O)CNC(=O)c1ccnc2c(NC(=O)CCC(=O)NCCNC(=O)CCC(C(=O)[O-])N3CCN(CC(=O)[O-])CCN(CC(=O)[O-])CC3)cccc12.[177Lu+3]` (stereo partly shown) [[177Lu]Lu-NODAGA-OncoFAP], for which the “complex formation with recombinant hFAP (co-elution)” value in data set [2] was “strong affinity”. Besides, the “interaction with hCAIX (co-elution)” value in [3] is reported as “no significant interaction”.
As a reminder, the LogP is a log measure of how a compound divides between an organic and an aqueous phase. A low value points to a more hydrophilic compound. For the compound `N#C[C@@H]1CC(F)(F)CN1C(=O)CNC(=O)c1ccnc2c(NC(=O)CCC(=O)NCCNC(=O)CCC(C(=O)O)N3CCN(CC(=O)[O-])CCN(CC(=O)[O-])CC3)cccc12.[18F][Al+2]` (stereo partly shown) [[^18F]AlF-NODAGA-OncoFAP], in [4], the LogD7.4 is recorded as -2.88±0.16 and the LogP was -3.02± 015.
Take `N#C[C@@H]1CC(F)(F)CN1C(=O)CNC(=O)c1ccnc2c(NC(=O)CCC(=O)N3CCN(C(=O)CN4CCN(CC(=O)[O-])CCN(CC(=O)[O-])CC4)CC3)cccc12.[18F][Al+2]` [[^18F]AlF-NOTA-OncoFAP]: in data set [5] (setting [10]), the tumor-to-blood ratio amounted to 6.5 and the tumor-to-kidney ratio was found to be 4.3. In data set [5] (1 h post intravenous injection, 500 nmol/kg, HT-1080.hFAP), this compound returned a tumor accumulation of 6.6 % ID/g. In data set [4], the LogD7.4 was -2.01± 0.25 and the LogP is listed as -2.15± 0.18. Also, the absolute binding value in data set [6] was found to be 0.25%.
As for `N#C[C@@H]1CC(F)(F)CN1C(=O)CNC(=O)c1ccnc2c(NC(=O)CCC(=O)NCCNC(=O)CCC(C(=O)O)N3CCN(CC(=O)[O-])CCN(CC(=O)[O-])CCN(CC(=O)[O-])CC3)cccc12.[68Ga+3]` (stereo partly shown) [[^68Ga]Ga-DOTAGA-OncoFAP], the “complex formation with recombinant hFAP (co-elution)” value in [2] is given as “forms a stable complex”. For the same compound, in data set [4], the LogD7.4 is reported as -2.39 ± 0.12 and the lipophilicity (LogP) is -2.57± 0.15. In data set [7] (at 1 h p.i.), the tumor-to-blood ratio was 8.6 ± 5.1. Besides, the tumor-to-blood ratio in data set [7] (at 3 h p.i.) was 38.1 ± 33.1.
For `N#C[C@@H]1CC(F)(F)CN1C(=O)CNC(=O)c1ccnc2c(NC(=O)CCC(=O)NCCNC(=O)CCC(C(=O)[O-])N3CCN(CC(=O)[O-])CCN(CC(=O)[O-])CC3)cccc12.[68Ga+3]` (stereo partly shown) [[^68Ga]Ga-NODAGA-OncoFAP], in [4], the LogD7.4 is -2.48± 0.09 and the LogP is given as -2.68± 0.14.
In data set [4], `N#C[C@@H]1CC(F)(F)CN1C(=O)CNC(=O)c1ccnc2c(NC(=O)CCC(=O)N3CCN(C(=O)CN4CCN(CC(=O)[O-])CCN(CC(=O)[O-])CC4)CC3)cccc12.[68Ga+3]` [[^68Ga]Ga-NOTA-OncoFAP] gave a LogD7.4 of -2.19± 0.11 and a log partition coefficient (LogP) of -2.38± 0.11.
In data set [4], `N#C[C@@H]1CC(F)(F)CN1C(=O)CNC(=O)c1ccnc2c(NC(=O)CCC(=O)NCCNC(=O)CCC(C(=O)O)N3CCN(CC(=O)[O-])CCN(CC(=O)[O-])CCN(CC(=O)[O-])CC3)cccc12.[177Lu+3]` (stereo partly shown) [[^177Lu]Lu-DOTAGA-OncoFAP] displayed a LogD7.4 of -1.85± 0.05. The LogP in data set [4] was -2.01± 0.08. The radiolysis entry in data set [8] (every 24 h, without gentisic acid) is “about 10%”; in data set [8] (within 8 days, with addition of 20 mg of gentisic acid as radical scavenger), “about 2%”. Besides, the “stability at high radioactive concentrations” value in data set [8] (in words, without stabilizer) was “intrinsic instability”. Moreover, in [9] (10 min after injection), the “uptake in the FAP-positive tumor” value was 32 % injected dose [ID]/g. For the same compound, the tumor uptake in data set [9] (at 24 h p.i.) is given as ~ 4 % ID/g. The “sustained uptake in the lesions” value in data set [9] (over the first 6 h time window) is “higher than 20 % ID/g”.
